# Legend:
# Assay type in all cases: in vivo
# [1] = test system: barnyard grass; assay: Herbicidal activity test against upland field weeds (foliar treatment test); conditions: Echinochloa crus-galli, 50 g ai/ha, scale 0-100
# Procedure, shortened: (§1)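 Greenhouse-grown plants (30±5 °C, 14/10 h light/dark) foliar hand-sprayed with compound in 50% acetone, 0.1% Tween-20 at 50 or 75 g a.i./ha. Control visually scored 0 (none) to 100 (complete) versus untreated after 14 days, or 21 days if needed.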
# [2] = test system: crabgrass; assay: Herbicidal activity test against upland field weeds (soil treatment test); set-up: key to Soil treatment herbicidal activity, Crabgrass: 0 (no control); 100 (complete control); conditions: 50 g ai/ha, scale 0 (no control) to 100 (complete control)
# Description: (§2) Experimental Example 2: Herbicidal Activity Test Against Upland Field Weeds (Soil Treatment Test) Soil treatment was performed as follows: After filling a square plastic pot having a surface area of 350 cm^2 with sandy loam mixed with 1 g per pot (350 cm^2) of horticultural mixed fertilizer (N:P:K=11:10:11), seeds (10˜15 grains) or rootstocks (2 pieces) of 5 kinds of grassy weeds of sorghum, barnyard grass, quack grass, crabgrass, fall panicum, and 5 kinds of broadleaf weeds of black nightshade, indian jointvetch, velvetleaf, cocklebur, bindweed, which had been stored in a low temperature (6° C.), were sown. The day after sowing, test compound solutions were made by diluting with a preparation solution (including 50% acetone, 0.1% Tween-20) so that the final treatment amount of the test compounds was 50 or 75 g a.i./ha. The prepared test compound solution was used for treating soil surface by hand-spraying 14 mL per pot in a fume hood. After the treatment, it was managed under the same greenhouse conditions (average temperature 30±5° C., light/dark=14/10 hours), and after 14 days (after 21 days if necessary), the external symptoms and efficacy were investigated according to the scale of 0 (no control) to 100 (complete control). The results of Table 8 were obtained by evaluating weed control value to the untreated control by conducting visual assessment.
# [3] = test system: indian jointvetch; assay: Herbicidal activity test against upland field weeds (foliar treatment test); conditions: 50 g ai/ha, scale 0-100
# Procedure, shortened: as §1
# [4] = test system: black nightshade; assay: as above; conditions: Solanum nigrum, 50 g ai/ha, scale 0-100
# Procedure, shortened: as §1
# [5] = test system: quack grass; assay: as above; set-up: key to Foliar treatment herbicidal activity, quack grass: 0 (no control); 100 (complete control); conditions: 50 g ai/ha, scale 0-100
# Procedure, shortened: as §1
# [6] = test system: sorghum; assay: Herbicidal activity test against upland field weeds (soil treatment test); set-up: key to Soil treatment herbicidal activity, Sorghum: 0 (no control); 100 (complete control); conditions: 50 g ai/ha, scale 0 (no control) to 100 (complete control); for plant injury at 50 g/ha: Sorghum
# Description: as §2
# [7] = test system: velvetleaf; assay: as above; set-up: key to Soil treatment herbicidal activity, velvet leaf: 0 (no control); 100 (complete control); conditions: 50 g ai/ha, scale 0 (no control) to 100 (complete control)
# Description: as §2
# [8] = test system: cocklebur; assay: Herbicidal activity test against upland field weeds (foliar treatment test); set-up: key to Foliar treatment herbicidal activity, Cocklebur: 0 (no control); 100 (complete control); conditions: 50 g ai/ha, scale 0-100; for pest or weed control at 50 g/ha: Xanthium strumarium
# Procedure, shortened: as §1
# [9] = test system: fall panicum; assay: Herbicidal activity test against upland field weeds (soil treatment test); set-up: key to Soil treatment herbicidal activity, Fall panicum: 0 (no control); 100 (complete control); conditions: 50 g ai/ha, scale 0 (no control) to 100 (complete control); for pest or weed control at 50 g/ha: Panicum dichotomiflorum
# Description: as §2
# [10] = test system: bindweed; assay: Herbicidal activity test against upland field weeds (foliar treatment test); conditions: 50 g ai/ha, scale 0-100
# Procedure, shortened: as §1
# [11] = test system: crabgrass; assay: as above; conditions: Digitaria sanguinalis, 50 g ai/ha, scale 0-100
# Procedure, shortened: as §1
# [12] = test system: indian jointvetch; assay: Herbicidal activity test against upland field weeds (soil treatment test); set-up: key to Soil treatment herbicidal activity, Indian jointvetch: 0 (no control); 100 (complete control); conditions: 50 g ai/ha, scale 0 (no control) to 100 (complete control)
# Description: as §2
# [13] = test system: velvetleaf; assay: Herbicidal activity test against upland field weeds (foliar treatment test); set-up: key to Foliar treatment herbicidal activity, velvet leaf: 0 (no control); 100 (complete control); conditions: 50 g ai/ha; for pest or weed control at 50 g/ha: Abutilon theophrasti, scale 0-100, read-out: Foliar treatment herbicidal activity, velvet leaf
# Procedure, shortened: as §1
# [14] = test system: sorghum; assay: as above; conditions: Sorghum, 50 g ai/ha, scale 0-100
# Procedure, shortened: as §1
# [15] = test system: black nightshade; assay: Herbicidal activity test against upland field weeds (soil treatment test); set-up: key to Soil treatment herbicidal activity, black nightshade: 0 (no control); 100 (complete control); conditions: 50 g ai/ha, scale 0 (no control) to 100 (complete control); for pest or weed control at 50 g/ha: Solanum nigrum
# Description: as §2
# [16] = test system: cocklebur; assay: as above; set-up: key to Soil treatment herbicidal activity, Cocklebur: 0 (no control); 100 (complete control); conditions: 50 g ai/ha, scale 0 (no control) to 100 (complete control)
# Description: as §2
# [17] = test system: fall panicum; assay: Herbicidal activity test against upland field weeds (foliar treatment test); conditions: Panicum dichotomiflorum, 50 g ai/ha, scale 0-100
# Procedure, shortened: as §1
# [18] = test system: quack grass; assay: Herbicidal activity test against upland field weeds (soil treatment test); set-up: key to Soil treatment herbicidal activity, quack grass: 0 (no control); 100 (complete control); conditions: 50 g ai/ha, scale 0 (no control) to 100 (complete control)
# Description: as §2
# [19] = test system: barnyard grass; assay: as above; set-up: key to Soil treatment herbicidal activity, barnyard grass: 0 (no control); 100 (complete control); conditions: 50 g ai/ha, scale 0 (no control) to 100 (complete control)
# Description: as §2
# [20] = test system: bindweed; assay: as above; conditions: 50 g ai/ha, scale 0 (no control) to 100 (complete control)
# Description: as §2
Compound,pest or weed control at 50 g/ha [1] [%],"Soil treatment herbicidal activity, Crabgrass [2]",pest or weed control at 50 g/ha [3] [%],pest or weed control at 50 g/ha [4] [%],"Foliar treatment herbicidal activity, quack grass [5]","Soil treatment herbicidal activity, Sorghum [6]","Soil treatment herbicidal activity, velvet leaf [7]","Soil treatment herbicidal activity, Fall panicum [9]",pest or weed control at 50 g/ha [10] [%],pest or weed control at 50 g/ha [11] [%],pest or weed control at 50 g/ha [12] [%],plant injury at 50 g/ha [14] [%],"Soil treatment herbicidal activity, Cocklebur [16]",pest or weed control at 50 g/ha [17] [%],"Soil treatment herbicidal activity, quack grass [18]","Soil treatment herbicidal activity, barnyard grass [19]",pest or weed control at 50 g/ha [8] [%],pest or weed control at 50 g/ha [9] [%],"Soil treatment herbicidal activity, Indian jointvetch [12]",pest or weed control at 50 g/ha [13] [%],other results
"CON(Cc1nc(C(F)(F)F)ccc1C(=O)Nc1nnnn1C)Cc1ncnn1C [Compound No. 1-91, 2-((methoxy((1-methyl-1H-1,2,4-triazol-5-yl)methyl)amino)methyl)-N-(1-methyl-1H-tetrazol-5-yl)-6-(trifluoromethyl)nicotinamide]",98,0,90,98,0,0,100,0,80,98,98,50,0,90,0,0,,,,,"Foliar treatment herbicidal activity, Cocklebur [8]: 100; Foliar treatment herbicidal activity, velvet leaf ([13]; scale 0-100): 100; pest or weed control at 50 g/ha [15]: 98%"
"CC(=O)N(C(=O)c1ccc(C(F)(F)F)nc1COCc1nnn(C)n1)c1nnnn1C [Compound No. 2-67, N-acetyl-N-(1-methyl-1H-tetrazol-5-yl)-2-(((2-methyl-2H-tetrazol-5-yl)methoxy)methyl)-6-(trifluoromethyl)nicotinamide]",70,100,80,95,0,,100,,40,70,,40,100,60,0,100,95,90,100,80,plant injury at 50 g/ha [6]: 50%; pest or weed control at 50 g/ha [20]: 70%
"Cn1cnc(COCc2nc(C(F)(F)Cl)ccc2C(=O)Nc2nnnn2C)n1 [Compound No. 2-80, 6-(chlorodifluoromethyl)-2-(((1-methyl-1H-1,2,4-triazol-3-yl)methoxy)methyl)-N-(1-methyl-1H-tetrazol-5-yl)nicotinamide]",80,0,70,98,0,0,,0,40,40,40,20,0,60,0,0,40,,,98,"pest or weed control at 50 g/ha ([7]; Abutilon theophrasti, read-out: Soil treatment herbicidal activity, velvet leaf): 98%; pest or weed control at 50 g/ha [15]: 98%"
"CON(Cc1nnn(C)n1)Cc1nc(C(F)(F)Cl)ccc1C(=O)Nc1nnnn1C [Compound No. 2-79, 6-(chlorodifluoromethyl)-2-((methoxy((2-methyl-2H-tetrazol-5-yl)methyl)amino)methyl)-N-(1-methyl-1H-tetrazol-5-yl)nicotinamide]",80,,70,98,0,,100,,40,70,,20,0,50,0,100,60,98,100,80,"pest or weed control at 50 g/ha ([2]; Digitaria sanguinalis): 95%; plant injury at 50 g/ha [6]: 30%; Soil treatment herbicidal activity, black nightshade [15]: 100"
"CON(Cc1nnn(C)n1)Cc1nc(C(F)F)ccc1C(=O)Nc1nnnn1C [Compound No. 2-86, 6-(difluoromethyl)-2-((methoxy((2-methyl-2H-tetrazol-5-yl)methyl)amino)methyl)-N-(1-methyl-1H-tetrazol-5-yl)nicotinamide]",95,0,80,95,0,0,100,,40,70,,30,0,50,0,,80,20,100,98,"Soil treatment herbicidal activity, black nightshade [15]: 100; pest or weed control at 50 g/ha ([19]; Echinochloa crus-galli): 98%"
